Measurements taken from patent US9751842B2, “Phthalazine derivatives” (Merck Patent GmbH, priority 2013, dated 2017).

Legend:
[1] = biological target: T1, GST-tagged Tankyrase-1 (1023-1327 aa) (Homo sapiens, UniProt O95271); assay: Tankyrase 1 autoparsylation HTRF enzyme assay; type: biochemical; details: HTRF autoparsylation, 90 min at 30° C; read-out: IC50 TNKS1 enzyme assay
T1 construct: GST-tagged Tankyrase-1 (1023-1327 aa)
Method: (§1) Biochemical Activity Testing of Tankyrase 1 and 2: Autoparsylation Assay
(§2) The autoparsylation assay is run in two steps: the enzymatic reaction in which GST-tagged Tankyrase-1, resp Tankyrase-2 transferred biotinylated ADP-ribose to itself from biotinylated NAD as co-substrate and the detection reaction where a time resolved FRET between cryptate labelled anti-GST bound to the GST tag of the enzyme and Xlent® labelled-streptavidin bound the biotin-parsylation residue is analysed. The autoparsylation activity was detectable directly via the increase in HTRF signal.
(§3) The autoparsylation assay is performed as 384-well HTRF® (Cisbio, Codolet, France) assay format in Greiner low volume nb 384-well microtiter plates and is used for high throughput screen. 250 nM GST-tagged Tankyrase-1 (1023-1327 aa), respectively about 250 nM GST-tagged Tankyrase-2 (873-1166 aa) and 5 μM bio-NAD (Biolog, Life science Inst., Bremen, Germany) as co-substrate are incubated in a total volume of 5 μl (50 mM HEPES, 4 mM Mg-chloride, 0.05% Pluronic F-68, 1.4 mM DTT, 0.5% DMSO, pH 7.7) in the absence or presence of the test compound (10 dilution concentrations) for 90 min at 30° C. The reaction is stopped by the addition of 1 μl 50 mM EDTA solution. 2 μl of the detection solution (1.6 μM SA-Xlent® (Cisbio, Codolet, France), 7.4 nM Anti-GST-K® (Eu-labelled anti-GST, Cisbio, Codolet, France) in 50 mM HEPES, 800 mM KF, 0.1° A. BSA, 20 mM EDTA, 0.1% CHAPS, pH 7.0) are added. After 1 h incubation at room temperature the HTRF is measured with an Envision multimode reader (Perkin Elmer LAS Germany GmbH) at excitation wavelength 340 nm (laser mode) and emission wavelengths 615 nm and 665 nm. The ratio of the emission signals is determined. The full value used is the inhibitor-free reaction. The pharmacological zero value used is XAV-939 (Tocris) in a final concentration of 5 μM. The inhibitory values (IC50) are determined using either the program Symyx Assay Explorer® or Condosseo® from GeneData.

[2] = biological target: T2, GST-tagged Tankyrase-2 (873-1166 aa) (Homo sapiens, UniProt Q9H2K2); assay: Tankyrase 2 autoparsylation HTRF enzyme assay; type: biochemical; details: HTRF autoparsylation, 90 min at 30° C; read-out: IC50 TNKS2 enzyme assay
T2 construct: GST-tagged Tankyrase-2 (873-1166 aa)
T2 sequence (Q9H2K2 873-1166): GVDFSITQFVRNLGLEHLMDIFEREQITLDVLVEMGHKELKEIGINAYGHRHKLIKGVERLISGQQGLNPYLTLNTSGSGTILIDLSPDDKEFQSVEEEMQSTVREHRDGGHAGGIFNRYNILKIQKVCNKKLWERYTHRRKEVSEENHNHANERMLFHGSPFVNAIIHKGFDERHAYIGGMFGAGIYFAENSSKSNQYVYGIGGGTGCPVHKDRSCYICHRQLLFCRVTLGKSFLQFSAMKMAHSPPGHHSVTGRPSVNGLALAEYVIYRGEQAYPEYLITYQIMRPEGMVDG
Method: as §1, §2, §3

[3] = tested on: Tankyrase (Axin2 level in DLD1 cells); assay: Cellular inhibition of Tankyrase, Axin2 Luminex assay in DLD1 cells; type: cell-based; details: Homo sapiens, DLD-1, 24 hours, Axin2 level increase, read-out: IC50 Cell assay
Method: Measurement of Cellular Inhibition of Tankyrase
Since Tankyrases have been described to modulate cellular level of Axin2 (Huang et al., 2009; Nature) the increase of Axin2 level is used as read-out for determination of cellular inhibition of Tankyrases in a Luminex based assay.
Cells of the colon carcinoma cell line DLD1 are plated in 96 well plates with 1.5×10^4 cells per well. Next day, cells are treated with a serial dilution of test compound in seven steps as triplicates with a final DMSO concentration of 0.3%. After 24 hours, cells are lysed in lysis buffer (20 mM Tris/HCl pH 8.0, 150 mM NaCl, 1% NP40, 10% Glycerol) and lysates are cleared by centrifugation through a 96 well filter plate (0.65 μm). Axin2 protein is isolated from cell lysates by incubation with a monoclonal anti-Axin2 antibody (R&D Systems #MAB6078) that is bound to fluorescent carboxybeads. Then, bound Axin2 is specifically detected with a polyclonal anti-Axin2 antibody (Cell Signaling #2151) and an appropriate PE-fluorescent secondary antibody. The amount of isolated Axin2 protein is determined in a Luminex^200 machine (Luminex Corporation) according to the manufacturer's instruction by counting 100 events per well. Inhibition of Tankyrase by test compounds results in higher levels of Axin2 which directly correlates with an increase of detectable fluorescence. As controls cells are treated with solvent alone (neutral control) and with a Tankyrase reference inhibitor IWR-2 (3E-06 M) which refers as control for maximum increase of Axin2. For analysis, the obtained data are normalized against the untreated solvent control and fitted for determination of the EC50 values using the Assay Explorer software (Accelrys).

T1 sequence (O95271 1023-1327): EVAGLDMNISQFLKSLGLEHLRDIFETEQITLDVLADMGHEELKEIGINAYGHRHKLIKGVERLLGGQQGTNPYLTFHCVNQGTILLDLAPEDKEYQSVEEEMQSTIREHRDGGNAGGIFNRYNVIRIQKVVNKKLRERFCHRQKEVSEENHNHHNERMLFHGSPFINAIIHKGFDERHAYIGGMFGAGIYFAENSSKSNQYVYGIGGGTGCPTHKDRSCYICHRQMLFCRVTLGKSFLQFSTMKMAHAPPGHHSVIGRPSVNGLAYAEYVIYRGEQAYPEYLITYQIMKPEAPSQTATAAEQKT

Compound | IC50 [1] | IC50 [2] | IC50 [3]
O=C(Cc1ccccc1)Nc1nncc2ccccc12 [Compound A1, 2-phenyl-N-phthalazin-1-yl-acetamide] | < 300 nM | 300 to 3000 nM | 3000 to 50000 nM
COc1cccc(CC(=O)Nc2nncc3ccccc23)c1 [Compound A2, 2-(3-methoxyphenyl)-N-phthalazin-1-yl-acetamide] | 300 to 3000 nM | 300 to 3000 nM | 3000 to 50000 nM
CCOc1ccc(CC(=O)Nc2nncc3ccccc23)cc1 [Compound A4, 2-(4-ethoxyphenyl)-N-phthalazin-1-yl-acetamide] | < 300 nM | 300 to 3000 nM | 3000 to 50000 nM

The next lines start with the values.

IC50 [1] | IC50 [2] | IC50 [3] | Compound
< 300 nM | 300 to 3000 nM | 3000 to 50000 nM | COc1ccc(CC(=O)Nc2nncc3ccccc23)cc1 [Compound A3, 2-(4-methoxyphenyl)-N-phthalazin-1-yl-acetamide]
< 300 nM | < 300 nM | 3000 to 50000 nM | O=C(CCC1CCCC1)Nc1nncc2ccccc12 [Compound A15, 3-cyclopentyl-N-phthalazin-1-yl-propionamide]
< 300 nM | < 300 nM | 3000 to 50000 nM | O=C(CCc1ccccc1Cl)Nc1nncc2ccccc12 [Compound A16, 3-(2-chloro-phenyl)-N-phthalazin-1-yl-propionamide]
300 to 3000 nM | 300 to 3000 nM | 3000 to 50000 nM | Cc1cccc2cnnc(NC(=O)Cc3ccccc3)c12 [Compound A18, N-(8-methyl-phthalazin-1-yl)-2-phenyl-acetamide]
300 to 3000 nM | 300 to 3000 nM | 3000 to 50000 nM | COc1ccc(CC(=O)Nc2nncc3cccc(C)c23)cc1 [Compound A20, 2-(4-methoxy-phenyl)-N-(8-methyl-phthalazin-1-yl)-acetamide]
